Reference: ChEMBL document CHEMBL4251560, “The Novel 4-Phenyl-2-Phenoxyacetamide Thiazoles modulates the tumor hypoxia leading to the crackdown of neoangiogenesis and evoking the cell death” (Eur J Med Chem, 2018)

Legend:
Format in all cases: functional, cell-based
[1] = Cytotoxicity against mouse DLA cells assessed as reduction in cell viability after 48 hrs by trypan blue exclusion assay
[2] = test system: MCF7; experiment: Cytotoxicity against human MCF7 cells assessed as reduction in cell viability after 48 hrs by MTT assay; settings: MCF7, 48 h
[3] = test system: Ehrlich; experiment: Cytotoxicity against mouse EAC cells assessed as reduction in cell viability after 48 hrs by trypan blue exclusion assay
[4] = test system: A549; experiment: Cytotoxicity against human A549 cells assessed as reduction in cell viability after 48 hrs by MTT assay; settings: A549, 48 h
[5] = test system: MDA-MB-468; experiment: Cytotoxicity against human MDA-MB-468 cells assessed as reduction in cell viability after 48 hrs by trypan blue exclusion assay; settings: MDA-MB-468, 48 h
[6] = test system: MCF7; experiment: Cytotoxicity against human MCF7 cells assessed as reduction in cell viability after 48 hrs by trypan blue exclusion assay; settings: MCF7, 48 h
[7] = test system: MDA-MB-468; experiment: Cytotoxicity against human MDA-MB-468 cells assessed as reduction in cell viability after 48 hrs by MTT assay; settings: MDA-MB-468, 48 h
[8] = test system: Ehrlich; experiment: Cytotoxicity against mouse EAC cells assessed as reduction in cell viability after 48 hrs by MTT assay
[9] = test system: A549; experiment: Cytotoxicity against human A549 cells assessed as reduction in cell viability after 48 hrs by trypan blue exclusion assay; settings: A549, 48 h
[10] = Cytotoxicity against mouse DLA cells assessed as reduction in cell viability after 48 hrs by MTT assay

| SMILES | IC50 [1] | IC50 [2] | IC50 [3] | IC50 [4] | IC50 [5] | IC50 [6] | IC50 [7] | IC50 [8] | IC50 [9] | IC50 [10] |
| --- | --- | --- | --- | --- | --- | --- | --- | --- | --- | --- |
| Cc1ccc(-c2csc(NC(=O)COc3ccccc3C)n2)cc1 | 46.6 µM | 53.5 µM | 54.9 µM | 50.9 µM | 51.7 µM | 53.2 µM | 52.1 µM | 54.4 µM | 50.1 µM | 46.5 µM |
| O=c1[nH]cc(F)c(=O)[nH]1 [FLUOROURACIL] | 10.6 µM | 10.2 µM | 9.6 µM |  | 44.6 µM | 10.6 µM | 44.9 µM | 9.2 µM |  | 10.8 µM |
| O=C(COc1ccccc1)Nc1nc(-c2ccc(Br)cc2)cs1 | 55.9 µM | 54.3 µM | 37.1 µM | 52.9 µM | 37.1 µM | 54 µM | 37.2 µM | 37.2 µM | 52.2 µM | 60.3 µM |
| O=C(COc1ccccc1)Nc1nc(-c2ccc(Cl)cc2)cs1 | 53.2 µM | 60.3 µM | 56.8 µM | 42.9 µM | 44.2 µM | 55.9 µM | 55.3 µM | 55.5 µM | 42.8 µM | 53.5 µM |
| Cc1cc(OCC(=O)Nc2nc(-c3ccc(Br)cc3)cs2)ccc1Cl | 39.7 µM | 52.1 µM | 47.1 µM | 52.1 µM | 51.7 µM | 51.7 µM | 52.1 µM | 47.8 µM | 51.7 µM | 40.1 µM |
| CC(C)c1ccccc1OCC(=O)Nc1nc(-c2ccc(Cl)cc2)cs1 | 40.1 µM | 18.7 µM | 49.8 µM | 17.8 µM | 55.5 µM | 18.1 µM | 53.2 µM | 50.1 µM | 17.1 µM | 40.6 µM |
| Cc1ccccc1OCC(=O)Nc1nc(-c2ccc(Br)cc2)cs1 | 62.8 µM | 40.1 µM | 44.5 µM | 50.1 µM | 44.5 µM | 39.7 µM | 44.9 µM | 44.9 µM | 49.8 µM | 62.2 µM |
| Cc1ccc(-c2csc(NC(=O)COc3ccc(F)cc3)n2)cc1 | 18.1 µM | 18.3 µM | 18.1 µM | 19.3 µM | 24.4 µM | 18.1 µM | 24.9 µM | 18.4 µM | 19.1 µM | 18.9 µM |
| O=C(COc1ccc(F)cc1F)Nc1nc(-c2ccc(Cl)cc2)cs1 | 26.4 µM | 25.8 µM | 26.5 µM | 26.5 µM | 32.3 µM | 25.3 µM | 32.9 µM | 26.2 µM | 26.3 µM | 26.1 µM |
| Cc1ccc(OCC(=O)Nc2nc(-c3ccc(Br)cc3)cs2)cc1 | 43.5 µM | 52.2 µM | 55.3 µM | 58.8 µM | 44.5 µM | 52.4 µM | 44.9 µM | 55.8 µM | 58.6 µM | 42.5 µM |
| O=C(COc1ccc(Br)cc1)Nc1nc(-c2ccc(Cl)cc2)cs1 | 40.1 µM | 52.4 µM | 51.7 µM | 54.4 µM | 50.9 µM | 52.1 µM | 45.1 µM | 52.1 µM | 54.9 µM | 40.6 µM |
| Cc1ccc(-c2csc(NC(=O)COc3ccccc3C(C)C)n2)cc1 | 52.2 µM | 49.2 µM | 42.8 µM | 44.2 µM | 56.8 µM | 49 µM | 55.5 µM | 42.9 µM | 44.7 µM | 52.9 µM |
| O=C(COc1ccc(F)cc1)Nc1nc(-c2ccc(Cl)cc2)cs1 | 35.1 µM | 35.5 µM | 35.9 µM | 36.5 µM | 42.9 µM | 35.3 µM | 42.1 µM | 35.3 µM | 36.3 µM | 35.9 µM |
| CC(C)c1ccc(OCC(=O)Nc2nc(-c3ccc(Cl)cc3)cs2)c(C(C)C)c1 | 54 µM | 40.1 µM | 62.8 µM | 48.8 µM | 41.1 µM | 40.6 µM | 41.7 µM | 62.2 µM | 48.6 µM | 54.3 µM |
| O=C(COc1ccc(Br)cc1)Nc1nc(-c2ccc(Br)cc2)cs1 | 52.1 µM | 44.9 µM | 41.1 µM | 46.5 µM | 41.1 µM | 44.5 µM | 41.7 µM | 41.7 µM | 46.6 µM | 52.4 µM |
| Cc1ccc(-c2csc(NC(=O)COc3ccc(Cl)cc3)n2)cc1 | 52.1 µM | 43.8 µM | 42 µM | 44 µM | 44.7 µM | 43.7 µM | 44.2 µM | 42.5 µM | 44.7 µM | 52.4 µM |
| O=C(COc1ccc(F)cc1)Nc1nc(-c2ccc(Br)cc2)cs1 | 43.5 µM | 55.5 µM | 45.3 µM | 52.1 µM | 51.7 µM | 56.8 µM | 52.1 µM | 45.5 µM | 51.7 µM | 42.5 µM |
| Cc1ccccc1OCC(=O)Nc1nc(-c2ccc(Cl)cc2)cs1 | 49 µM | 62.2 µM | 63.1 µM | 64.9 µM | 52.1 µM | 62.8 µM | 40.1 µM | 62.3 µM | 64.8 µM | 49.2 µM |
| Cc1cc(Cl)ccc1OCC(=O)Nc1nc(-c2ccc(Cl)cc2)cs1 | 40.6 µM | 40.6 µM | 52.1 µM | 43.4 µM | 52.1 µM | 40.1 µM | 52.4 µM | 52.4 µM | 43.1 µM | 40.1 µM |
| O=C(COc1ccc(F)cc1F)Nc1nc(-c2ccc(Br)cc2)cs1 | 55.3 µM | 52.9 µM | 44.7 µM | 58.8 µM | 44.7 µM | 52.1 µM | 44.2 µM | 44.2 µM | 59.1 µM | 55.8 µM |
| Cc1ccc(-c2csc(NC(=O)COc3ccccc3)n2)cc1 | 51.7 µM | 43 µM | 49.8 µM | 41.7 µM | 54.5 µM | 43 µM | 54.9 µM | 50.1 µM | 41.1 µM | 52.1 µM |
| Cc1ccc(OCC(=O)Nc2nc(-c3ccc(C)cc3)cs2)cc1 | 39.7 µM | 41.3 µM | 45.1 µM | 48.3 µM | 37.1 µM | 41.4 µM | 37.2 µM | 45.7 µM | 48.8 µM | 40.1 µM |
| O=C(COc1ccc(Cl)cc1)Nc1nc(-c2ccc(Br)cc2)cs1 | 55.9 µM | 41.1 µM | 40.6 µM | 46.1 µM | 51.7 µM | 41.4 µM | 52.1 µM | 40.1 µM | 46.4 µM | 60.3 µM |
| Cc1ccc(-c2csc(NC(=O)COc3ccc(Cl)c(C)c3)n2)cc1 | 59.1 µM | 40.9 µM | 59.1 µM | 44.9 µM | 54.7 µM | 41.5 µM | 54.2 µM | 58.8 µM | 44.5 µM | 60.3 µM |
| CC(C)c1ccccc1OCC(=O)Nc1nc(-c2ccc(Br)cc2)cs1 | 45.1 µM | 42.5 µM | 50.1 µM | 48.2 µM | 50.1 µM | 43.5 µM | 50.9 µM | 50.9 µM | 48.5 µM | 45.7 µM |
| O=C(COc1ccc(Cl)cc1)Nc1nc(-c2ccc(Cl)cc2)cs1 | 52.1 µM | 44.5 µM | 52.1 µM | 49.9 µM | 56.8 µM | 44.1 µM | 55.5 µM | 51.9 µM | 49.1 µM | 53.2 µM |
| Cc1ccc(OCC(=O)Nc2nc(-c3ccc(Cl)cc3)cs2)cc1 | 52.1 µM | 48.7 µM | 40.1 µM | 45.7 µM | 50.1 µM | 48.8 µM | 50.9 µM | 40.6 µM | 44.8 µM | 52.9 µM |
| Cc1ccc(-c2csc(NC(=O)COc3ccc(Br)cc3)n2)cc1 | 51.7 µM | 39.1 µM | 48.5 µM | 37.2 µM | 40.1 µM | 39 µM | 40.9 µM | 48.2 µM | 37.1 µM | 52.1 µM |
